The target of assay [1] is SHP2 catalytic domain (SHP2cat; residues 248-527) (Homo sapiens (Human), UniProt Q06124). Briefly: DiFMUP fluorescence intensity phosphatase inhibition assay, SHP2cat. It counts as biochemical. The source says: To test the synthesized compounds for their potential to inhibit SHP2 activity, a fluorescence intensity-based assay using 6,8-difluoro-4-methylumbelliferyl phosphate (DiFMUP) as the substrate was adapted for three recombinant SHP2 constructs: 1) the SHP2 catalytic domain (SHP2cat; residues 248-527), 2) the full-length SHP2-E76K oncogenic mutant, and 3) the full-length SHP2 wild-type (SHP2-WT). The recombinant SHP2 proteins were expressed and purified. A dually phosphorylated peptide derived from the insulin receptor substrate 1 (IRS-1) served as a surrogate binding protein and was used to activate SHP2-WT. […] Michaelis-Menten experiments to determine the DiFMUP Michaelis-Menten constant (Kmn) for each SHP2 construct were performed and yielded the following values: SHP2-WT, Km=60 μM; SHP2-E76K, Km=20 μM; SHP2cat, Km=20 μM. Relative maximum rates (Vmax) of the DiFMUP reactions were as follows: SHP2-WT, Vmax=871 AFU/min; SHP2-E76K, Vmax, =2730 AFU/min; SHP2cat, Vmax=2912 AFU/min. IC50 values for each compound were determined from initial rates in 10-point dose-response assays using DiFMUP at a concentration corresponding to its Km value for the respective SHP2 construct.
Chain of SHP2 catalytic domain (SHP2cat; residues 248-527) (Q06124 248-527): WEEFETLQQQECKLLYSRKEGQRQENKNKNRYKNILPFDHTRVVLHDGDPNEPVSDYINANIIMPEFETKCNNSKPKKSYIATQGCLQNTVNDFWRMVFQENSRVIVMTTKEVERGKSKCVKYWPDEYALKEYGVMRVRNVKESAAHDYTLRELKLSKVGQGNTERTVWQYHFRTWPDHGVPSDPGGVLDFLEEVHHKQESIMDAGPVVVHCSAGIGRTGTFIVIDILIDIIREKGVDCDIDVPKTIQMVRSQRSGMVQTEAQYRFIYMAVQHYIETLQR
SHP2 inhibitors were tested at room temperature (RT) in a 384-well plate format standard phosphatase fluorescence intensity assay using DiFMUP (Invitrogen/Thermo Fisher Scientific, Carlsbad, CA) as a substrate and a total reaction volume of 25 μL. SHP2 inhibitors or vehicle (DMSO) were spotted in triplicate into a black Greiner FLUOTRAC™ 200 384-well microplate (#781076, Greiner) for a 10-point dose-response assay using an Echo®555 Liquid Handler (Labcyte, Inc., San Jose, CA). PTP working solutions were prepared at a 0.625 nM concentration (for a final concentration of 0.5 nM) in buffer containing 50 mM Bis-Tris pH 6.0, 50 mM NaCl, 5 mM DTT, and 0.01% Tween® 20. Prior to the assay, a dually phosphorylated insulin receptor substrate 1 (IRS-1) peptide [625 nM (500 nMfinal) (30)] was added to full-length WT SHP2 working solutions and incubated for 20 min. DiFMUP working solutions at 5× final concentration were prepared in 50 mM Bis-Tris pH 6.0, 50 mMNaCl, and 0.01% Tween 20. 20 μL of PTP working solution was dispensed into the microplate and incubated with inhibitor for 20 min at RT. […] The reaction was initiated by addition of 5 μL DiFMUP working solutions. Fluorescence intensity was measured in kinetic mode (every minute for 7 or 10 min) using a Tecan Spark® Multimode Microplate Reader (Tecan, Groedig, Austria) with an excitation wavelength of 360 nm and an emission wavelength of 460 nm. The initial rates were determined from the linear progression curves of the PTP reaction. The nonenzymatic hydrolysis of the substrate was corrected by using a control without addition of enzyme. IC50 values were calculated from the corrected initial rates by nonlinear regression using the program GraphPad Prism (GraphPad Software, Inc., San Diego, CA) Version 8. Dose-response inhibition assays of SHP2cat using the substrate OMFP were performed similarly as described above for DiFMUP. OMFP was used at a concentration corresponding to its Km value for SHP2cat (50 μM final). Fluorescence intensity was measured in kinetic mode (every minute for 10 min) using a Tecan Spark Multimode Microplate Reader with an excitation wavelength of 485 nm and an emission wavelength of 535 nm. Initial rates were determined and IC50 vales calculated as described above.

Assay [2] has as its system KYSE-520 esophageal cancer cells. Briefly: Cell viability assay (CellTiter-Glo), KYSE-520. It counts as cell-based. Particulars: KYSE-520 cells, various concentrations, 3 d. The source says:
Inhibition of SHP2 has been reported to inhibit the growth of cancer cells including Kasumi-1 acute myeloid leukemia (AML) and KYSE-520 esophageal cancer cells. […] Cell viability is shown as a percentage of the vehicle (DMSO) control and represents the mean±SD. B) #02 dose-response curves in cell viability assays using Kasumi-1, KYSE-520, MOLM-13, and […] cells after 3 d in culture. The percentages compared to DMSO vehicle control were curve fitted using nonlinear regression (log[inhibitor] vs. normalized response, variable slope) and represent the mean±SD. C) Cell viability of […] and MDA-MB-468 triple-negative breast cancer (TNBC) cells in the presence of various concentrations of #02 or the SHP2 allosteric inhibitor SHP099 after 5 d in culture. Cell viability is shown as a percentage of DMSO vehicle control, representing mean±SD, and curve fitted as in B). D) Colony formation assay (11 d) of […] and MDA-MB-468 TNBC cells in the presence of various concentrations of #02 or the SHP2 allosteric inhibitor SHP099. E) Phospho-ERK1/2 (p-ERK1/2) immunoblot analysis from total cell lysates of MOLM-13 AML cells treated with #02 at the indicated concentrations, or with SHP2 allosteric inhibitor RMC-4550 (RMC, 1 μM) for 3 h or 24 h. The quantitation of p-ERK1/2 levels is shown as the percentage of the DMSO (vehicle) control and represents data from three independent experiments (mean±SD). F) Viability of AML patient-derived cells in the presence of 10 μM #02 or 10 μM SHP2 allosteric inhibitor RMC-4550 after 2 d, 4 d, or 6 d in culture. Cell viability is shown as a percentage of the DMSO vehicle control and represents the mean±SD (*p<0.05; **p<0.01; ****p<0.0001; unpaired test with Welch's correction) G) Viability of MOLM-13 cells and MOLM-13-Cas9-mCherry cells with SHP2 knockout (KO) in the presence of #01, #02, and allosteric inhibitor SHP099 at various concentrations (10-point dose-response). The percentages compared to the DMSO vehicle control were curve fitted using nonlinear regression (log[inhibitor] vs. normalized response, variable slope) and represent the mean±SD. SHP2 protein levels in regular MOLM-13 cells (WT), MOLM-13-Cas9-mCherry cells (Cas9), and MOLM-13-Cas9-mCherry cells with SHP2 KO (SHP2 KO) were evaluated by immunoblot analysis using SHP2 antibodies.
Viability of AML, esophageal carcinoma, and TF-1 cells was assessed using the ATP-depletion assay CellTiter-Glo® (Promega). Cells were harvested at 1×10^6/mL to 2×10^6 cells/mL with cell numbers determined by trypan blue using the Countess Cell counter (Thermo Scientific) and resuspended in culture media. […] Luminescence was read on a Tecan Spark® Multimode Microplate Reader and data analyzed using Graph Pad Prism software.

The mark [3] stands for this setting: DiFMUP at Km (20 μM), read-out: SHP2cat IC50.
Where [4] appears, read: catalytic domain, DiFMUP at Km, read-out: SHP2 IC50.

SMILES strings stand for the structures. Like-named read-outs stand apart in the source and are kept apart here.

For `Nc1ccc(NC(=O)c2cc(-c3ccc(/C=C4\Sc5ccccc5C4=O)o3)ccc2O)cc1` [#01, (Z)—N-(4-Aminophenyl)-2-hydroxy-5-(5-((3-oxobenzo[b]thiophen-2(3H)-ylidene)methyl)furan-2-yl)benzamide], the concentration for half-maximal inhibition (IC50) was at most 1000 nM in assay [1] (setting [3]) and 220 nM in assay [1] (setting [4]). The “effect on cancer cell growth” value in assay [2] is “dose-dependently inhibited cancer cell growth”.

Take `O=C(Nc1ccccc1)c1cc(-c2ccc(/C=C3\Sc4ccccc4C3=O)o2)ccc1O` [#02, (Z)-2-hydroxy-5-(5-((3-oxobenzo[b]thiophen-2(3H)-ylidene)methyl)furan-2-yl)-N-phenylbenzamide]: the IC50 in assay [1] (setting [3]) is at most 1000 nM; in assay [1] (setting [4]), 730 nM. The “effect on cancer cell growth” value in assay [2] was “dose-dependently inhibited cancer cell growth”.

Consider `N#Cc1cc(-c2ccc(/C=C3\Sc4ccccc4C3=O)o2)ccc1O` [#05, (Z)-2-Hydroxy-5-(5-((3-oxobenzo[b]thiophen-2(3H)-ylidene)methyl)furan-2-yl)benzonitrile], for which the IC50 is 1000 to 20000 nM in assay [1] (setting [3]) and 1400 nM in assay [1] (setting [4]). Further, the “effect on cancer cell growth” value in assay [2] is recorded as “dose-dependently inhibited cancer cell growth”.

The record behind these values is patent US20250026741A1, “INHIBITORS OF THE ONCOGENIC SHP2 PHOSPHATASE AND USES THEREOF” (Sanford Burnham Prebys Medical Discovery Institute, priority 2021, published 2025).
